Measurements: patent US12522594B2, “2-heteroaryl-3-oxo-2,3-dihydropyridazine-4-carboxamides for the treatment of cancer” (Deutsches Krebsforschungszentrum, priority 2017, dated 2026)

Tests used:
[1] = biological target: T1, AHR (Homo sapiens, UniProt P35869); test: In vitro assay 1: antagonism in human cell line (transactivation assay, U87 cells prestimulated with kynurenic acid, DRE firefly luciferase reporter); format: cell-based; parameters: host or cells: U87 glioblastoma cells, stably transfected with DRE firefly luciferase and renilla reporter constructs; conditions: 150 uM kynurenic acid, 20 hours, read-out: Assay 1: AHR-luc Hum Antagonism IC50
T1 sequence (P35869 11-848): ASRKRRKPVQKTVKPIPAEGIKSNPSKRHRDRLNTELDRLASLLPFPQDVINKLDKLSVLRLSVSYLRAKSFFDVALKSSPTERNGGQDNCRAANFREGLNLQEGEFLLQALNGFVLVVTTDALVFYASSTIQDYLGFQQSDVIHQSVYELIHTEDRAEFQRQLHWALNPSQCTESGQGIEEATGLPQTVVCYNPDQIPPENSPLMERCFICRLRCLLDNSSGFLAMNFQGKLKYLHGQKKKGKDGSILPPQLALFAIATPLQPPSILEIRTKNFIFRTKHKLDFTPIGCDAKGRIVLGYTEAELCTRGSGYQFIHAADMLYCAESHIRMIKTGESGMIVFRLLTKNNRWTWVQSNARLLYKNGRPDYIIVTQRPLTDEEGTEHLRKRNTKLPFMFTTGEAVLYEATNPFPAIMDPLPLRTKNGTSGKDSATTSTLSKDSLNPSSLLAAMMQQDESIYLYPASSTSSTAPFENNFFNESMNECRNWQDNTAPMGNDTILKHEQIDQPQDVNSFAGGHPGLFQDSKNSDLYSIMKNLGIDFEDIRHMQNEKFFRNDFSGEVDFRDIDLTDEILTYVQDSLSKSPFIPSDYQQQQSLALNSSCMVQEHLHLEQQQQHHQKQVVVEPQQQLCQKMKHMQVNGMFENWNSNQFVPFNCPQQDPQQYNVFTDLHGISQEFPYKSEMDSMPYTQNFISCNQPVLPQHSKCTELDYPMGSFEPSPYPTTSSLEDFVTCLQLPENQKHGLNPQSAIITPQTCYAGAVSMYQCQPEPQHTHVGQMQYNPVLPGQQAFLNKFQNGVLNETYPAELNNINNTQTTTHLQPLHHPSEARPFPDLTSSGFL
Method in brief: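 U87 glioblastoma cells with endogenous AHR, stably carrying a DRE-driven firefly luciferase reporter and a constitutive renilla reporter. Cells prestimulated with the AHR agonist kynurenic acid before compound addition; data normalized to positive and negative controls.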

[2] = biological target: T1, AHR; test: In vitro assay 2: agonism in human cell line (transactivation assay, U87 cells, DRE firefly luciferase reporter); format: cell-based; parameters: host or cells: U87 glioblastoma cells, stably transfected with DRE firefly luciferase and renilla reporter constructs; conditions: no kynurenic acid, 20 hours, read-out: Assay 2: AHR-luc Hum Agonism IC50
Method in brief: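 U87 glioblastoma cells with endogenous AHR, stably carrying DRE-driven firefly luciferase and constitutive renilla reporters. 300 uM kynurenic acid served as positive activation control; data normalized to positive and negative controls.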

| IC50 [1] | IC50 [2] | Structure (SMILES) |
| --- | --- | --- |
| 11.1 nM | > 20000 nM | Cc1cc(-n2nc(-c3ccc(Cl)cc3)cc(C(=O)N[C@@H](C)CO)c2=O)cs1 [Example 242, 6-(4-Chlorophenyl)-N-[(2S)-1-hydroxypropan-2-yl]-2-(5-methyl-3-thienyl)-3-oxo-2,3-dihydropyridazine-4-carboxamide] |
| 157 nM | > 20000 nM | O=C(N[C@H]1CCCC[C@H]1O)c1cc(-c2ccc(Cl)cc2)nn(-c2ccnnc2)c1=O [Example 164, 3-(4-Chlorophenyl)-N-[(1S,2R)-2-hydroxycyclohexyl]-6-oxo-6H-1,4′-bipyridazine-5-carboxamide] |
| 11.9 nM | > 20000 nM | C[C@@H](CO)NC(=O)c1cc(-c2ccc(C(F)(F)F)cc2)nn(-c2cn[nH]c2)c1=O [Example 244, N-[(2S)-1-Hydroxypropan-2-yl]-3-oxo-2-(1H-pyrazol-4-yl)-6-[4-(trifluoromethyl)phenyl]-2,3-dihydropyridazine-4-carboxamide] |
| 27.6 nM | > 20000 nM | O=C(N[C@H](CO)C1CC1)c1cc(-c2ccc(C(F)(F)F)nc2)nn(-c2cncc(F)c2)c1=O [Example 339, N-[(1S)-1-Cyclopropyl-2-hydroxyethyl]-2-(5-fluoropyridin-3-yl)-3-oxo-6-[6-(trifluoromethyl)pyridin-3-yl]-2,3-dihydropyridazine-4-carboxamide] |
| 594 nM | > 20000 nM | CC(C)(O)CNC(=O)c1cc(-c2ccc(Cl)cc2)nn(-c2ccnnc2)c1=O [Example 178, 3-(4-Chlorophenyl)-N-(2-hydroxy-2-methylpropyl)-6-oxo-6H-1,4′-bipyridazine-5-carboxamide] |
| 304 nM | > 20000 nM | O=C(N[C@H](CO)C(F)(F)F)c1cc(-c2ccc(CF)cc2)nn(-c2cccnc2)c1=O [Example 282, 6-[4-(Fluoromethyl)phenyl]-3-oxo-2-(pyridin-3-yl)-N-[(2R)-1,1,1-trifluoro-3-hydroxypropan-2-yl]-2,3-dihydropyridazine-4-carboxamide] |
| 19.4 nM | > 20000 nM | C[C@@H](CO)NC(=O)c1cc(-c2ccc(Cl)cc2)nn(-c2cnoc2)c1=O [Example 253, 6-(4-Chlorophenyl)-N-[(2S)-1-hydroxypropan-2-yl]-2-(1,2-oxazol-4-yl)-3-oxo-2,3-dihydropyridazine-4-carboxamide] |
| 85.5 nM | > 20000 nM | O=C(NC[C@H](O)CO)c1cc(-c2ccc(C(F)(F)F)cc2)nn(-c2cccnc2)c1=O [Example 114, N-[(2S)-2,3-Dihydroxypropyl]-3-oxo-2-(pyridin-3-yl)-6-[4-(trifluoromethyl)phenyl]-2,3-dihydropyridazine-4-carboxamide] |
| 4.31 nM | > 20000 nM | O=C(NC[C@H](O)C(F)(F)F)c1cc(-c2ccc(C(F)(F)F)cc2)nn(-c2cnn(C(F)F)c2)c1=O [Example 223, 2-[1-(Difluoromethyl)-1H-pyrazol-4-yl]-3-oxo-N-[(2S)-3,3,3-trifluoro-2-hydroxypropyl]-6-[4-(trifluoromethyl)phenyl]-2,3-dihydropyridazine-4-carboxamide] |
| 94.5 nM | > 20000 nM | C[C@@H](CO)NC(=O)c1cc(-c2ccc(OC(F)F)cc2)nn(-c2cccnc2)c1=O [Example 332, 6-[4-(Difluoromethoxy)phenyl]-N-[(2S)-1-hydroxypropan-2-yl]-3-oxo-2-(pyridin-3-yl)-2,3-dihydropyridazine-4-carboxamide] |
| 13.3 nM | > 20000 nM | CC(NC(=O)c1cc(-c2ccc(Cl)cc2)nn(-c2cccnc2)c1=O)C(O)C(F)(F)F (single isomer, unassigned) [Example 299, 6-(4-Chlorophenyl)-3-oxo-2-(pyridin-3-yl)-N-(4,4,4-trifluoro-3-hydroxybutan-2-yl)-2,3-dihydropyridazine-4-carboxamide] |
| 33 nM | > 20000 nM | C[C@@H](CO)NC(=O)c1cc(-c2ccc(C(F)(F)F)cc2)nn(-c2cnn(C(F)F)c2)c1=O [Example 261, 2-[1-(Difluoromethyl)-1H-pyrazol-4-yl]-N-[(2S)-1-hydroxypropan-2-yl]-3-oxo-6-[4-(trifluoromethyl)phenyl]-2,3-dihydropyridazine-4-carboxamide] |
| 1970 nM | > 20000 nM | O=C(N[C@H]1COC[C@H]1O)c1cc(-c2ccc(C(F)F)nc2)nn(-c2cccnc2)c1=O (single isomer, unassigned) [Example 183, 6-[6-(Difluoromethyl)pyridin-3-yl]-N-[(cis)-4-hydroxytetrahydrofuran-3-yl]-3-oxo-2-(pyridin-3-yl)-2,3-dihydropyridazine-4-carboxamide] |
| 1.85 nM | > 20000 nM | C[C@H](NC(=O)c1cc(-c2ccc(OC(F)(F)F)cc2)nn(-c2cnsc2)c1=O)C(C)(C)O [Example 312, N-[(2S)-3-Hydroxy-3-methylbutan-2-yl]-3-oxo-2-(1,2-thiazol-4-yl)-6-[4-(trifluoromethoxy)phenyl]-2,3-dihydropyridazine-4-carboxamide] |
| 239 nM | > 20000 nM | O=C(N[C@H]1CCC[C@H]1O)c1cc(-c2ccc(Cl)cc2)nn(-c2ccnnc2)c1=O [Example 167, 3-(4-Chlorophenyl)-N-[(1S,2R)-2-hydroxycyclopentyl]-6-oxo-6H-1,4′-bipyridazine-5-carboxamide] |
| 7.06 nM | > 20000 nM | O=C(NC(CO)C1CC1)c1cc(-c2ccc(Cl)cc2)nn(-c2cncc(F)c2)c1=O (racemic) [Example 97, 6-(4-Chlorophenyl)-N-[(1RS)-1-cyclopropyl-2-hydroxyethyl]-2-(5-fluoropyridin-3-yl)-3-oxo-2,3-dihydropyridazine-4-carboxamide] |
| 134 nM | > 20000 nM | C[C@@H](CO)NC(=O)c1cc(-c2ccc(Cl)cc2F)nn(-c2cccnc2)c1=O [Example 163, 6-(4-Chloro-2-fluorophenyl)-N-[(2S)-1-hydroxypropan-2-yl]-3-oxo-2-(pyridin-3-yl)-2,3-dihydropyridazine-4-carboxamide] |
| 2.82 nM | > 20000 nM | O=C(N[C@@H]1CSC[C@@H]1O)c1cc(-c2ccc(C(F)(F)F)cc2)nn(-c2cccnc2)c1=O (relative stereo) [Example 290, N-cis-4-Hydroxytetra-hydrothiophen-3-yl-3-oxo-2-(pyridin-3-yl)-6-[4-(trifluoromethyl)phenyl]-2,3-dihydropyridazine-4-carboxamide] |
| 0.418 nM | > 20000 nM | C[C@H](NC(=O)c1cc(-c2ccc(C(F)(F)F)cc2)nn(-c2cnsc2)c1=O)C(C)(C)O [Example 196, N-[(2S)-3-Hydroxy-3-methylbutan-2-yl]-3-oxo-2-(1,2-thiazol-4-yl)-6-[4-(trifluoromethyl)phenyl]-2,3-dihydropyridazine-4-carboxamide] |
| 6.88 nM | > 20000 nM | O=C(N[C@H]1CCC[C@@H]1O)c1cc(-c2ccc(OC(F)(F)F)cc2)nn(-c2cccnc2)c1=O [Example 132, N-[(1S,2S)-2-Hydroxycyclopentyl]-3-oxo-2-(pyridin-3-yl)-6-[4-(trifluoromethoxy)phenyl]-2,3-dihydropyridazine-4-carboxamide] |
| 48.8 nM | > 20000 nM | C[C@@H](NC(=O)c1cc(-c2ccc(Cl)cc2)nn(-c2cncnc2)c1=O)C(C)(C)O [Example 265, 6-(4-Chlorophenyl)-N-[(2R)-3-hydroxy-3-methylbutan-2-yl]-3-oxo-2-(pyrimidin-5-yl)-2,3-dihydropyridazine-4-carboxamide] |
